Measured values published in patent US20090227470A1, “SELECTION OF BIOCATALYSTS FOR CHEMICAL SYNTHESIS” (priority 2005, published 2009).
“And” between values parts separate entries of the source, which are not always exact repeats. Equal entries are not always repeated. Where two headings read alike, the source gives them in different places.

Key:
[1] = tested on: DH10B-pVSF2-tet^r/pCom10-XylC (benzaldehyde dehydrogenase XylC from Pseudomonas putida); assay: Plate-based assay for tetracycline resistance, biocat-selector strain with XylC substrates; format: cell-based, Escherichia coli; conditions: for EC50: Escherichia coli, read-out: substrate concentration required for half-maximal colony diameter, cells containing XylC, selective plates, estimated from inverse plots of FIG. 4
Text: Plasmid pCom10-XylC was re-introduced into DH10B-pVSF2-tet^r to produce the desired biocat-selector strain DH10B-pVSF2-tet^r/pCom10-XylC. This strain grew on tetracycline containing selective plates only after addition of benzaldehyde or 2-hydroxybenzaldehyde.

[2] = tested on: DH10B-pVSF2-lacZ/pCom10-XylC (benzaldehyde dehydrogenase XylC from Pseudomonas putida); assay: Plate-based assay for β-galactosidase activity, biocat-reporter strain with XylC substrates; conditions: plates with chloramphenicol, kanamycin, X-Gal; decane vapor to induce XylC
Protocol: Cells were plated and grown as above, under decane vapor, followed by incubation at 4° C. and testing for blue colony color as above.
Strain DH10B-pVSF2-lacZ was transformed with pCom10-XylC, streaked on plates containing chloramphenicol, kanamycin, X-Gal and varying concentrations of benzaldehyde or 2-hydroxybenzaldehyde, and grown exposed to decane vapor to induce XylC. Strain DH10B-pVSF2-lacZ, carrying an empty pCom10 vector served as control.

NahR variant = NahR variant (Pseudomonas putida, UniProt P10183, N169D); conditions: reported by de Lorenzo and coworkers (Cebolla et al., 1997); cited from earlier work
Chain of NahR variant (P10183 whole entry N169D, the tested form may be a part): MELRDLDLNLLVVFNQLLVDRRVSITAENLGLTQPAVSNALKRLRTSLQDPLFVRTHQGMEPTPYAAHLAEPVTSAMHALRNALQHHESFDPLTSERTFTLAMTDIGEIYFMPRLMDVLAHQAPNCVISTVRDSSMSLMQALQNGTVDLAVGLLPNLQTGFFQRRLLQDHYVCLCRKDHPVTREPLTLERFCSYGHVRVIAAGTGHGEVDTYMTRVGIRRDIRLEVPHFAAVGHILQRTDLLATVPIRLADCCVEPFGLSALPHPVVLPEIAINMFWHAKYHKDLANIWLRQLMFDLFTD

[3] = tested on: DH10B-pVSF2-tet^r (NahR mutant, Psal fused to tetA)
Protocol: (§1) Each plate assay was conducted in triplicate and growth was determined by measuring the colony diameter of 10 solitary colonies for each plate.
(§2) We compared the sensitivity of the selector host for substrates and products by plotting the data of FIGS. 3 and 4 as inverse plots of 1/[colony diameter] vs 1/[compound] and estimating the concentration required for half maximal colony size.

[4] = tested on: DH10B-pVSF2-lacZ (NahR mutant, salicylate promoter Psal fused to lacZa); conditions: plates with chloramphenicol and X-Gal, 36 h at 30° C.
Protocol: E. coli DH10B cells harbouring reporter plasmid pVSF2-lacZ were streaked on the plates from a liquid culture that had been grown at 30° C. to an OD600 of 0.1. Cells were grown for 36 h at 30° C. followed by incubation at 4° C. for 24 h after which blue colony color formation was evaluated visually.

E. coli cell membranes = assay: Passive diffusion across the cell envelope; format: in vitro ADME; conditions: for diffusion rate across E. coli cell membranes: estimated from studies of toluene oxidation by E. coli hosts containing xylMA
Text: This can be considered to be due to differences in the transport of benzaldehyde and benzoate through the E. coli cell envelope. Such transport is believed to involve only passive diffusion^21,22. […].
Thus, substrate influx and product efflux, though different, are quite rapid. […]

[5] = tested on: DH10B-pVSF2-tet^r (NahR mutant, Psal fused to tetA); assay: microbe, parasite or virus in culture; conditions: Escherichia coli, read-out: concentration required for half maximal colony size (colony diameter 50% of maximum), product added extracellularly, selective plates; estimated from inverse plots of FIG. 3
Protocol: as §1, §2

With `O=Cc1ccccc1O` [2-hydroxybenzaldehyde] the EC50 [1] was about 0.3 µM and the “substrate concentration above which blue colonies were formed” value [2] was “above 25 μM”.
In the case of `O=C(O)c1ccccc1O` [2-hydroxybenzoate], the “affinity of the NahR chemosensor, times greater than for benzoate” value (NahR variant) is listed as 10, the “fold more effective than the parent compound in triggering tetracycline resistance” value ([3]; 2-hydroxy substituted vs unsubstituted compound) is listed as 15-20 and the EC50 ([3]; read-out: concentration required for half maximal colony size (colony diameter 50% of maximum), product added extracellularly, selective plates, estimated from inverse plots of FIG. 3) is listed as ~20 µM and 20 µM. The “minimum concentration at which colonies were formed” value ([3]; selective media with tetracycline) was 10 µM, the “concentration at which smaller and also fewer colonies were observed” value ([3]; selective plates with tetracycline) was 10 µM and the “concentration above which blue colonies were detected” value [4] was “higher than 10 μM”. The “saturating concentration for blue colony formation” value [4] was about 100 µM.
In the case of `O=Cc1ccccc1` [benzaldehyde], the EC50 [1] is reported as about 6 µM, the “concentration giving homogeneous growth” value ([1]; host with higher tetracycline tolerance, selective conditions) is reported as about 100 µM and the “time for intracellular and extracellular concentrations to equilibrate” value (E. coli cell membranes) is reported as “a few seconds”. The “diffusion rate across E. coli cell membranes” value (E. coli cell membranes) was “exceed 180 μmol/min/g cell dry mass” and the “substrate concentration above which blue colonies were formed” value [2] was “above 50 μM”.
With `O=C(O)c1ccccc1` [benzoate] the “time for intracellular and extracellular concentrations to equilibrate” value (E. coli cell membranes) was “one minute”, the “diffusion rate across E. coli cell membranes” value (E. coli cell membranes) was over 10 μmol/min/g cell dry mass and the EC50 [5] was about 400 µM.
